Results as given in patent publication US7157457B2, “Compounds useful in the treatment of inflammatory diseases” (Glaxo Group Limited, priority 2000, dated 2007).
Counter-ions that a name gives are not always drawn.

These compounds were tested against T1, CCR-3 (Homo sapiens, UniProt P51677) (assay: CCR-3 competition binding SPA ([125I]eotaxin)). Settings: inhibition of [125I]eotaxin binding to membranes of K562 cells stably expressing CCR-3; mean of at least two experiments; read-out: CCR-3 Binding Assay (pIC50) (converted).
T1 sequence (P51677 1-355): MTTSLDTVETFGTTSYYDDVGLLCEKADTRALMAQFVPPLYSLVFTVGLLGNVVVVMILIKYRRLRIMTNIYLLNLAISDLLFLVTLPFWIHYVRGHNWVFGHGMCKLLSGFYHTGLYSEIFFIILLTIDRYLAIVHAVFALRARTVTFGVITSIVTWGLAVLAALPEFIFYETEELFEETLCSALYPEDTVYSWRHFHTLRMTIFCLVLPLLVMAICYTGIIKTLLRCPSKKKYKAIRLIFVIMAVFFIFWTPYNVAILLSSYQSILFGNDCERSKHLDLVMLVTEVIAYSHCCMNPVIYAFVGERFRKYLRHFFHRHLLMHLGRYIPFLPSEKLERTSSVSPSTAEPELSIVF
Parameters: expressed in transfected cells
Description: A CCR-3 competition binding SPA (scintillation proximity assay) was used to assess the affinity of novel compounds for CCR-3. Membranes prepared from K562 cells stably expressing CCR-3 (2.5 μg/well) were mixed with 0.25 mg/well wheat-germ agglutinin SPA beads (Amersham) and incubated in binding buffer (HEPES 50 mM, CaCl2 1 mM, MgCl2 5 mM, 0.5% BSA) at 4° C. for 1.5 hr. Following incubation, 20 pM of [^125I] eotaxin (Amersham) and increasing concentrations of compound (1 pM to 30 μM) were added and incubated in a 96 well plate for 2 hr at 22° C. then counted on a Microbeta plate counter. The total assay volume was 100 μl. Competition binding data were analysed by fitting the data with a four parameter logistic equation. Data are presented as the mean pIC50 values (negative logarithm of the concentration of compound which inhibits [^125I]eotaxin binding by 50%) from at least two experiments.

| SMILES | IC50 [nM] |
| --- | --- |
| CC(=O)Nc1cccc(CNC(=O)NCC2CN(Cc3ccc(Cl)c(Cl)c3)CCO2)c1 (stereo not shown) [Example 52, N-[3-({[({[4-(3,4-Dichlorobenzyl)morpholin-2-yl]methyl}amino)carbonyl]amino}methyl)phenyl]acetamide Formate] | 1.78 |
| NC(=O)c1ccc(CNC(=O)NC[C@H]2CN(Cc3ccc(Cl)c(Cl)c3)CCO2)cc1 [Example 54, 4-({[({[(2S)-4-(3,4-Dichlorobenzyl)morpholin-2-yl]methyl}amino)carbonyl]amino}methyl)benzamide] | 11 |
| Cc1ccc(CNC(=O)NCC2CN(Cc3ccc(Cl)c(Cl)c3)CCO2)cc1 (stereo not shown) [Example 3, N-{[4-(3,4-Dichlorobenzyl)morpholin-2-yl]methyl}-N′-(4-methylbenzyl)urea] | 69.2 |
| O=C(NCC1CN(Cc2ccc(Cl)c(Cl)c2)CCO1)Nc1ccc(SC(F)(F)F)cc1 (stereo not shown) [Example 34, N-{[4-(3,4-Dichlorobenzyl)morpholin-2-yl]methyl}-N′-{4-[(trifluoromethyl)thio]phenyl}urea] | 2000 |
| O=C(NCc1ccc(Cl)cc1)NCC1CN(Cc2ccc(Cl)c(Cl)c2)CCO1 (stereo not shown) [Example 47, N-(4-Chlorobenzyl)-N′-{[4-(3,4-dichlorobenzyl)morpholin-2-yl]methyl}urea] | 66.1 |
| O=C(NCC1CN(Cc2ccc(Cl)c(Cl)c2)CCO1)Nc1cccc(C(F)(F)F)c1 (stereo not shown) [Example 22, N-{[4-(3,4-Dichlorobenzyl)morpholin-2-yl]methyl}-N′-[3-(trifluoromethyl)phenyl]urea] | 955 |
| O=C(NCC1CN(Cc2ccc(Cl)c(Cl)c2)CCO1)Nc1ccc(Cl)cc1 (stereo not shown) [Example 14, N-(4-Chlorophenyl)-N′-{[4-(3,4-dichlorobenzyl)morpholin-2-yl]methyl}urea] | 661 |
| O=C(NCC1CN(Cc2ccc(Cl)c(Cl)c2)CCO1)Nc1ccc(OC(F)F)cc1 (stereo not shown) [Example 16, N-{[4-(3,4-Dichlorobenzyl)morpholin-2-yl]methyl}-N′-[4-(difluoromethoxy)phenyl]urea] | 741 |
| C=Cc1ccc(CN2CCOC(CNC(=O)Nc3ccc(Cl)cc3)C2)cc1 (stereo not shown) [Example 38, N-(4-Chlorophenyl)-N′-{[4-(4-vinylbenzyl)morpholin-2-yl]methyl}urea] | 1910 |
| O=C(NCC1CN(Cc2ccc3ccccc3c2)CCO1)Nc1ccc(Cl)cc1 (stereo not shown) [Example 23, N-(4-Chlorophenyl)-N′-{[4-(2-naphthylmethyl)Morpholin-2-yl]methyl}urea] | 832 |
| CNC(=O)c1ccc(CNC(=O)NC[C@H]2CN(Cc3ccc(Cl)c(Cl)c3)CCO2)cc1 [Example 149, 4-({[({[(2S)-4-(3,4-dichlorobenzyl)morpholin-2-yl]methyl}amino)carbonyl]amino}methyl)-N-methylbenzamide] | 15.8 |
| N#Cc1ccc(NC(=O)NCC2CN(Cc3ccc(Cl)c(Cl)c3)CCO2)cc1 (stereo not shown) [Example 25, N-(4-Cyanophenyl)-N′-{[4-(3,4-dichlorobenzyl)morpholin-2-yl]methyl}urea] | 1000 |
| Cn1nnc(CNC(=O)NC[C@H]2CN(Cc3ccc(Cl)c(Cl)c3)CCO2)n1 [Example 136, N-{[(2S)-4-(3,4-dichlorobenzyl)morpholin-2-yl]methyl}-N′-[(2-methyl-2H-tetraazol-5-yl)methyl]urea] | 15.8 |
| O=C(NCC1CN(Cc2ccc(Cl)s2)CCO1)Nc1ccc(Cl)cc1 (stereo not shown) [Example 37, N-(4-Chlorophenyl)-N′-({4-[(5-chlorothien-2-yl)methyl]morpholin-2-yl}methyl)urea] | 3800 |
| O=C(NCC1CN(Cc2cccc(I)c2)CCO1)Nc1ccc(Cl)cc1 (stereo not shown) [Example 21] | 955 |
| N#Cc1cccc(NC(=O)NCC2CN(Cc3ccc(Cl)c(Cl)c3)CCO2)c1 (stereo not shown) [Example 5, N-(3-Cyanophenyl)-N′-{[4-(3,4-dichlorobenzyl)morpholin-2-yl]methyl}urea] | 117 |
| CCOC(=O)C(c1ccccc1)N1CCOC(CNC(=O)Nc2ccc(Cl)cc2)C1 (stereo not shown) [Example 44, Ethyl {2-[({[(4-chlorophenyl)amino]carbonyl}amino)methyl]morpholin-4-yl}(phenyl)acetate] | 10500 |

These compounds were tested against T1, CCR-3 (assay: Eosinophil chemotaxis assay (eotaxin-induced)). Settings: functional pKi; eosinophils from human peripheral blood; agonist eotaxin; read-out: CCR-3 Eosinophil Chemotaxis Assay (fpKi) (converted).
Type: cell-based
Parameters: Eosinophils were purified from human peripheral blood; endogenous in cells; host or cells: human peripheral blood eosinophils
Description: (b) Eosinophil Chemotaxis Assay.
Compounds were evaluated for their inhibitory effect on eosinophil chemotaxis. Eosinophils were purified from human peripheral blood by standard CD16 cell depletion using a Miltenyi cell separation column and a magnetic Super Macs magnet as previously described (Motegi & Kita, 1998; J. Immunology. 161:4340–6). Cells were re-suspended in RPMI 1640/10% FCS solution and incubated with calcein-AM (Molecular Probes) at 37° C. for 30 mins. Following incubation, the eosinophils were centrifuged at 400 g for 5 min and re-suspended in RPMI/FCS at 2.2 million/ml. Cells were then incubated in the presence of increasing concentration of compounds (1 pM to 30 μM) at 37° C. for 30 mins. For control responses cells were incubated with RPMI/FCS only. The agonist eotaxin (either a concentration response curve or for the functional inhibition curves an EC80 concentration) was added to the lower chamber of a 96 well chemotaxis plate (5 μm filter: Receptor Technologies). Eosinophils (50 μl of 2 million/ml cells) were added to the top chamber of the filter plate and incubated at 37° C. for 45 mins. Cells remaining on top of the chemotaxis filter were removed and the number of eosinophils which had migrated were quantified by reading the plate on a fluorescent plate reader. Inhibition curves for the effect of compounds on eosinophil chemotaxis were analysed by fitting the data with a four parameter logistic equation. Functional pKi values (fpKi) were generated using the equation below (Lazareno & Birdsall, 1995. Br. J. Pharmacol 109: 1110–9).

| SMILES | Ki [nM] |
| --- | --- |
| O=C(NCC1CN(Cc2cccc3ccccc23)CCO1)Nc1ccc(Cl)cc1 (stereo not shown) [Example 19, N-(4-Chlorophenyl)-N′-{[4-(1 naphthylmethyl)morpholin-2-yl]methyl}urea] | 1100 |
| NC(=O)c1ccc(CNC(=O)NC[C@H]2CN(Cc3ccc(Cl)c(Cl)c3)CCO2)cc1 [Example 54, 4-({[({[(2S)-4-(3,4-Dichlorobenzyl)morpholin-2-yl]methyl}amino)carbonyl]amino}methyl)benzamide] | 15.8 |
| Cc1cccc(CNC(=O)NCC2CN(Cc3ccc(Cl)c(Cl)c3)CCO2)c1 (stereo not shown) [Example 4, N-{[4-(3,4-Dichlorobenzyl)morpholin-2-yl]methyl}-N′-(3-methylbenzyl)urea] | 44.7 |
| COc1ccc(CNC(=O)NCC2CN(Cc3ccc(Cl)c(Cl)c3)CCO2)cc1 (stereo not shown) [Example 2, N-{[4-(3,4-Dichlorobenzyl)morpholin-2-yl]methyl}-N′-(4-methoxybenzyl)urea] | 49 |
| O=C(NCCc1ccccc1)NCC1CN(Cc2ccc(Cl)c(Cl)c2)CCO1 (stereo not shown) [Example 8, N-{[4-(3,4-Dichlorobenzyl)morpholin-2-yl]methyl}-N′-(2-phenylethyl)urea] | 115 |
| C#CCNC(=O)NC[C@H]1CN(Cc2ccc(Cl)c(Cl)c2)CCO1 [Example 57, N-{[(2S)-4-(3,4-Dichlorobenzyl)morpholin-2-yl]methyl}-N′-prop-2-ynylurea] | 9.77 |
| O=C(NCc1cccc(Cl)c1)NCC1CN(Cc2ccc(Cl)c(Cl)c2)CCO1 (stereo not shown) [Example 48, N-(3-Chlorobenzyl)-N′-{[4-(3,4-dichlorobenzyl)morpholin-2-yl]methyl}urea] | 38.9 |
| O=C(NCC1CN(Cc2cccc(Cl)c2)CCO1)Nc1ccc(Cl)cc1 (stereo not shown) [Example 26, N-{[4-(3-Chlorobenzyl)morpholin-2-yl]methyl}-N′-(4-chlorophenyl)urea] | 1410 |
| O=C(NCC1CN(Cc2ccc(Cl)c(Cl)c2)CCO1)Nc1cccc(Cl)c1 (stereo not shown) [Example 13, N-(3-Chlorophenyl)-N′-{[4-(3,4-dichlorobenzyl)morpholin-2-yl]methyl}urea] | 407 |
| CNC(=O)c1ccc(CNC(=O)NC[C@H]2CN(Cc3ccc(Cl)c(Cl)c3)CCO2)cc1 [Example 149, 4-({[({[(2S)-4-(3,4-dichlorobenzyl)morpholin-2-yl]methyl}amino)carbonyl]amino}methyl)-N-methylbenzamide] | 15.8 |
| CSc1cccc(NC(=O)NCC2CN(Cc3ccc(Cl)c(Cl)c3)CCO2)c1 (stereo not shown) [Example 18, N-{[4-(3,4-Dichlorobenzyl)morpholin-2-yl]methyl}-N′-[3-(methylthio)phenyl]urea] | 1450 |
| Cn1nnc(CNC(=O)NC[C@H]2CN(Cc3ccc(Cl)c(Cl)c3)CCO2)n1 [Example 136, N-{[(2S)-4-(3,4-dichlorobenzyl)morpholin-2-yl]methyl}-N′-[(2-methyl-2H-tetraazol-5-yl)methyl]urea] | 5.01 |

The compounds below were run on ovalbumin sensitised guinea pigs (assay: Guinea-pig ovalbumin model: eosinophil infiltration and hyper-reactivity). Settings: 0.2–20 mg/kg, oral route.
Type: in vivo
Description: (c) Guinea-pig Ovalbumin Model
Inhibition of Eosinophil Infiltration and Hyper-Reactivity in the Guinea Pig
In a method based on that described by Danahay et al., 1997, ovalbumin sensitised guinea pigs were dosed with mepyramine (30 mg kg^−1 ip) to protect against anaphylactic bronchospasm. Test compounds, dissolved in 10% DMSO and 90% PEG200, were given by the oral route, 30 minutes before ovalbumin challenge (10 minutes breathing of an aerosol generated from a 0.5% solution of ovalbumin). Hyper-reactivity of the airways to the thromboxane mimetic U46619, was measured 24 hours after ovalbumin challenge in unrestrained animals using a whole body plethysmograph (Buxco Ltd., USA). The guinea pigs were then sacrificed and the lungs lavaged. Total and differential leukocyte counts were then obtained for the bronchoalveolar lavage fluid and the percentage reduction in eosinophil accumulation determined (Sanjar et al., 1992). Data was presented as the inhibitory effect of the specified dose expressed as a percentage of the vehicle control response.

| SMILES | inhibition of lung eosinophilia |
| --- | --- |
| O=C(NCC1CN(Cc2ccc(Cl)c(Cl)c2)CCO1)Nc1ccc(Cl)cc1 (stereo not shown) [Example 14, N-(4-Chlorophenyl)-N′-{[4-(3,4-dichlorobenzyl)morpholin-2-yl]methyl}urea] | showed inhibition |

Same assay, conditions: 0.2–20 mg/kg, oral route, hyper-reactivity to U46619

| SMILES | inhibition of bronchial hyperreactivity |
| --- | --- |
| O=C(NCC1CN(Cc2ccc(Cl)c(Cl)c2)CCO1)Nc1ccc(Cl)cc1 (stereo not shown) [Example 14, N-(4-Chlorophenyl)-N′-{[4-(3,4-dichlorobenzyl)morpholin-2-yl]methyl}urea] | showed inhibition |
